Measurements published in patent publication US8808702B2, “Sulfide, sulfoxide and sulfone chalcone analogues, derivatives thereof and therapeutic uses thereof” (Temple University-of the Commonwealth System of Higher …, priority 2006, dated 2014).
Read-outs that look alike come from different tables or passages of the source.

Columns and labels:
[1] = system: K562 (chronic myelogenous leukaemia); test: Effect of compounds on tumor cell lines (assay of Latham et al.), K562; type: cell-based; conditions: K562 cells, read-out: K 562 potency (IC50)
How it was run: (§1)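 After 96 h of exposure to compound (1–100 μM in DMSO; one compound at 0.1–100 μM), effects were scored by inverted-microscope inspection, with trypan blue viable counts by hemacytometer when required. Cells were seeded at 2.5×10^4 per well and dosed 24 h after plating.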

DU145 (prostate cancer) = test: Effect of compounds on tumor cell lines (assay of Latham et al.), DU145; type: cell-based; conditions: DU145 cells, read-out: DU 145 potency (IC50)
How it was run: as §1

[2] = 96 hours after treatment, 1 μM to 100 μM
[3] = Table 1, examined 96 hours after treatment, 1 μM to 100 μM in DMSO

IC50 [1, 2] [µM]	IC50 (DU145 (prostate cancer); [2]) [µM]	SMILES	IC50 [1, 3] [µM]	IC50 (DU145 (prostate cancer); [3]) [µM]
10 to 25	10 to 25	COc1cc(OC)c(OC)cc1C=C(SCc1ccc(Br)cc1)C(=O)c1ccc([N+](=O)[O-])cc1 [Example 305]		
10 to 25	1 to 10	O=C(C(=Cc1cc(Br)c(O)c(Br)c1)SCc1ccc(Br)cc1)c1ccc(Br)cc1 [Example 147]		
		COc1ccc(C=C(Sc2ccc(C)cc2)C(=O)c2ccc(Br)cc2)cc1 [Example 99]	10 to 25	50 to 100
≤ 1	1 to 10	CN1CCN(CCNC(=O)c2ccc(C(=O)C(=Cc3ccc(F)c([N+](=O)[O-])c3)SCc3ccc(Br)cc3)cc2)CC1 [Example 311]		
1 to 10	1 to 10	O=C(O)c1ccc(C(=O)C(=Cc2ccc(Br)c([N+](=O)[O-])c2)SCc2ccccc2Cl)cc1 [Example 302]		
1 to 10	25 to 50	COc1ccc(C=C(SCc2ccc(F)cc2)C(=O)c2ccc(Br)cc2)cc1 [Example 265]		
		Cc1ccc(SC(=Cc2sccc2C)C(=O)c2ccc(Br)cc2)cc1 [Example 83]	50 to 100	50 to 100
≤ 1	1 to 10	O=C(O)c1ccc(C(=O)/C(=C\c2ccc(F)c([N+](=O)[O-])c2)SCc2ccccc2)cc1 [Example 353]		
		COc1ccc(SC(=Cc2ccc(Br)cc2)C(=O)c2ccc(Br)cc2)cc1 [Example 63]	1 to 10	25 to 50
		Cc1cc(C)cc(C=C(Sc2ccc(Br)cc2)C(=O)c2ccc(Cl)cc2)c1 [Example 26]	1 to 10	10 to 25
		Cc1ccc(SC(=Cc2cnc3ccccc3c2)C(=O)c2ccc(Cl)cc2)cc1 [Example 85]	> 100	> 100
25 to 50	25 to 50	COc1ccc(C=C(SCc2ccc(Cl)cc2)C(=O)c2ccc(C(=O)O)cc2)cc1 [Example 227]		
10 to 25	10 to 25	Cc1cc(C)cc(C=C(SCc2ccc(Br)cc2)C(=O)c2ccc(Cl)cc2)c1 [Example 149]		
		Cc1ccc(C)c(C=C(Sc2ccc(Br)cc2)C(=O)c2ccc(Cl)cc2)c1 [Example 19]	10 to 25	10 to 25
		Cc1ccc(SC(=Cc2ccc(Cl)cc2)C(=O)c2ccc(Cl)cc2)cc1 [Example 91]	1 to 10	25 to 50
		Cc1ccc(SC(=Cc2sccc2C)C(=O)c2ccc(Cl)cc2)cc1 [Example 84]	50 to 100	50 to 100
50 to 100	50 to 100	CCN(CC)CCNC(=O)c1c(C)[nH]c(C=C(SCc2ccc(C)cc2)C(=O)c2ccc(C(=O)O)cc2)c1C [Example 284]		
1 to 10	1 to 10	Cc1ccc(S(=O)(=O)Oc2ccc(C(=O)/C(=C\c3ccc(F)c([N+](=O)[O-])c3)SCc3ccc(F)cc3)cc2)cc1 [Example 336]		
1 to 10	1 to 10	CC1=CC(=O)C(C)=C(C(C)(C)CC(=O)Oc2cc(C=C(SCc3ccc(Br)cc3)C(=O)c3ccc(Br)cc3)ccc2[N+](=O)[O-])C1=O [Example 307]		
≤ 1	1 to 10	O=C(C(=Cc1ccc(N2CCN(CCO)CC2)c([N+](=O)[O-])c1)SCc1ccc(F)cc1)c1ccc(F)cc1 [Example 330]		
		O=C(C(=Cc1ccc(OC(F)(F)F)cc1)Sc1ccc(Br)cc1)c1ccc(Br)cc1 [Example 51]	1 to 10	1 to 10
1 to 10	25 to 50	O=C(/C(=C\c1ccc(Cl)cc1)SCc1ccc(Br)cc1)c1ccccc1Cl [Example 169]		
1 to 10	10 to 25	CN(C)c1ccc(C=C(SCc2ccc(Cl)cc2)C(=O)c2ccc(Br)cc2)cc1 [Example 208]		
1 to 10	10 to 25	COc1ccc(C=C(SCc2ccc(Cl)cc2)C(=O)c2ccc(Cl)cc2)cc1 [Example 228]		
		Cc1ccc(SC(=Cc2ccc(C)s2)C(=O)c2ccc(Br)cc2)cc1 [Example 109]	50 to 100	> 100
1 to 10	10 to 25	O=C(C(=Cc1c[nH]c2ccc(Br)cc12)SCc1ccc(Cl)cc1Cl)c1ccc(Cl)cc1 [Example 123]		
10 to 25	10 to 25	Cc1ccc(CSC(=Cc2cc(Cl)cc(Cl)c2)C(=O)c2ccc(Cl)cc2)cc1 [Example 281]		
